Measurements from patent publication US20070185211A1, “Crystal forms of cinacalcet HCI and processes for their preparation” (priority 2005, published 2007).

Assay: Crystal form after drying/heating at 50° C. (solid state stability of the polymorph)
Format: physicochemical
Procedure: X-Ray powder diffraction data were obtained using a SCINTAG powder X-Ray diffractometer model X'TRA equipped with a solid state detector and a variable gonimeter. Copper radiation of 1.5418 Å was used. A round standard aluminum sample holder with round zero background, and cavity of 25(diameter)*0.5(dept) mm. Scanning parameters range of: 2-40 deg. 2θ and continuous scan rate of 3 deg./min.
0.62 gr of Cinacalcet HCl was dissolved in Chloroform (6 ml) at room temperature. […] The slurry was stirred at room temperature for 4 minutes. […]

C[C@@H](NCCCc1cccc(C(F)(F)F)c1)c1cccc2ccccc12.Cl [Cinacalcet HCl crystal form III, (R)-α-methyl-N-[3-[3-(trifluoromethyl)phenyl]propyl]-1-naphthalenemethane amine]
crystalline structure after drying (dried at 50° C. for 24 hours): maintained as form III | crystal form obtained after heating (heated at 50° C. under vacuum for 22 hours): form I was obtained
